Reference: patent publication US20250277059A1, “ANTIBODY USED TO TREAT CORONAVIRUS INFECTION” (priority 2022, published 2025)

Experiments:
[1] = test system: pseudo-typed virus having S protein of SARS COV_2 S 501Y.V2 (B.1.351: β variant); format: cell-based, SARS-COV-2
[2] = test system: pseudo-typed virus having S protein of SARS COV_2 S VOC202012/01 (B.1.1.7: α variant); format: cell-based, SARS-COV-2

N=C(N)c1ccc2cc(OC(=O)c3ccc(N=C(N)N)cc3)ccc2c1 [Nafamostat, nafamostat]
infection inhibiting effect on β variant-type virus [1]: exhibited infection inhibiting effects
infection inhibiting effect on α variant-type virus [2]: exhibited infection inhibiting effects
